Laboratory results from PubChem BioAssay (NCI).
Values joined by “and” are separate entries in the source; they are usually repeats but may differ in a detail not shown here. Identical values can stand only once.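 Method: 48-hour compound exposure of cells in 96-well plates, five concentrations, linear interpolation of endpoints. Here, GI50 denotes the concentration required for 50% inhibition of growth. Definition used: TGI = concentration required for complete inhibition of growth.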

Columns and labels:
Experiment in all cases: growth of human tumour cells (NCI), 48 h
[1] = system: SNB-19 CNS
[2] = system: EKVX NSCLC
[3] = system: SK-MEL-5 melanoma
[4] = system: DU-145 prostate
[5] = system: SNB-75 CNS
[6] = system: SF-539 CNS
[7] = system: RPMI-8226 leukemia
[8] = system: NCI-H23 lung
[9] = system: LXFL 529 NSCLC
[10] = system: SNB-78 CNS
[11] = system: XF 498 CNS

| SMILES | GI50 [1] | TGI [1] | GI50 [2] | TGI [2] | GI50 [3] | TGI [3] | GI50 [4] | TGI [4] | GI50 [5] | TGI [5] | GI50 [6] | TGI [6] | GI50 [7] | TGI [7] | GI50 [8] | TGI [8] | GI50 [9] | TGI [9] | TGI [10] | TGI [11] |
| --- | --- | --- | --- | --- | --- | --- | --- | --- | --- | --- | --- | --- | --- | --- | --- | --- | --- | --- | --- | --- |
| Cn1cc(-c2nc(-c3cn(C)c4ncccc34)cs2)c2ccccc21 | 3.68 µM | 25.2 µM | 1.77 µM | > 100 µM | 0.842 µM | 3.06 µM | 2.25 µM | 10.7 µM | 1.44 µM | 4.83 µM | 1.76 µM | 4.99 µM | 3.72 µM | > 100 µM | 3.14 µM | 23.9 µM |  |  |  |  |
| CN(C)C/C=C/C(=O)Nc1cc2c(Nc3cccc(Cl)c3F)ncnc2cc1OCCOC(F)F | 1.97 µM | 13.3 µM |  | 6.1 µM | 2.46 µM | 7.87 µM | 0.317 µM | 10.7 µM | 0.494 µM | 3.79 µM | 1.5 µM | 5.59 µM | 1.53 µM | 5.27 µM | 2.07 µM | 10.2 µM |  |  |  |  |
| CCC(C)C(=O)OC1CCC=C2C=CC(C)C(CCC3CC(O)CC(=O)O3)C21 (stereo not given) |  | > 100 µM |  | > 100 µM |  | > 100 µM |  | > 100 µM |  | > 75.9 µM |  | > 29.5 µM |  | > 100 µM |  | > 100 µM |  |  |  |  |
| C=C1C(=O)O[C@H]2[C@H]1CC/C(COC(=O)N[C@H](Cc1c[nH]c3ccccc13)C(=O)OC)=C\CC[C@@]1(C)O[C@@H]21 | 8.75 µM | 22.6 µM | 1.8 µM | 5.66 µM | 7.03 µM | 20.5 µM | 1.61 µM | 4.37 µM | 8.35 µM | 22.5 µM | 2.01 µM | 5.37 µM | 2.02 µM | 5.83 µM | 4.3 µM | 17.7 µM |  |  |  |  |
| CC(=O)[CH-]C(=O)c1ccccc1.CC(=O)[CH-]C(=O)c1ccccc1.CC(=O)[CH-]C(=O)c1ccccc1.[Br-].[Zr+4] |  |  | 57.5 µM | > 100 µM | > 100 µM | > 100 µM |  |  | 34 µM | > 100 µM |  |  | 72.5 µM | > 100 µM | > 100 µM | > 100 µM | 70.7 µM | > 100 µM |  |  |
| O=C(O)CCSC(=O)Nc1ccccc1 |  | > 100 µM |  | > 100 µM |  |  |  |  |  |  |  | > 100 µM |  | > 100 µM |  | > 100 µM |  | > 100 µM | > 100 µM |  |
| OCC1OC(n2cnc3c(NCc4ccccc4O)ncnc32)C(O)C1O (stereo not given) | 1.39 µM | > 100 µM | 1.03 µM | > 100 µM | 1.84 µM | 15.3 µM | 0.224 µM | > 32 µM | 1.74 µM | 18.3 µM | 0.403 µM | 2.49 µM | 5.11 µM | > 63.6 µM | 0.457 µM | 4.46 µM |  |  |  |  |
| O=C1CCc2ccc(O)c(c2)Oc2ccc(cc2)[C@@H]2O[C@@H]2CO1 |  | > 100 µM |  | > 100 µM |  | 58.2 µM |  |  |  | > 100 µM |  | > 100 µM |  | > 100 µM |  | > 100 µM |  | > 100 µM |  | 30.6 µM |
| C[C@@H](Oc1cc(-c2cnn(C3CCNCC3)c2)cnc1N)c1c(Cl)cc(F)cc1Cl | 3.46 µM | 14.3 µM | 3.72 µM | 17.3 µM | 1.51 µM | 2.89 µM | 3.25 µM | 13.6 µM | 1.65 µM | 4.38 µM | 1.67 µM | 3.3 µM | 2.41 µM | 8.6 µM | 1.93 µM | 14.8 µM |  |  |  |  |
| CN(C)CCNC(=O)c1cccc2c1nc(-c1ccncc1)c1ccccc12 |  | 27.2 µM |  | 10 µM |  | 6.8 µM |  |  |  | 15.8 µM |  | 10.7 µM |  |  |  | 13.1 µM |  |  | 23.2 µM |  |
| CC(=N/NC(N)=S)/C(C)=N/NC(N)=S |  | > 100 µM |  | > 100 µM |  | > 100 µM |  | > 100 µM |  | > 100 µM |  | > 100 µM |  | > 100 µM |  | > 100 µM |  |  |  |  |
| CC1(C)CN(CCNc2nccc(-c3c(-c4cccc(O)c4)nc4sccn34)n2)S(=O)(=O)N1 | > 33.2 µM | > 33.2 µM | > 33.2 µM | > 33.2 µM | 1.29 µM | 12.5 µM | 7.48 µM | > 33.2 µM | 5.14 µM | > 33.2 µM | 30 µM | > 33.2 µM | 16.6 µM | > 33.2 µM | 16.8 µM | > 33.2 µM |  |  |  |  |
| O=c1[nH]c2ccccc2n1C1CCN(CCOc2ccccc2)CC1 | 47.8 µM | > 100 µM | 7.05 µM | 58.4 µM | 16 µM | 42 µM | 15.8 µM | > 100 µM | 23.7 µM | > 100 µM | 44.9 µM | > 100 µM | 9.28 µM | > 100 µM | 30.5 µM | > 100 µM |  |  |  |  |
| COc1ccc(C(Nc2ccccn2)c2cc(C(C)(C)C)cc(C(C)(C)C)c2O)cc1 (stereo not given) |  | > 100 µM |  | > 100 µM |  | 31.3 µM |  | > 100 µM |  | 49.4 µM |  | > 100 µM |  | > 100 µM |  | 51.2 µM |  |  |  |  |
| NC(Cc1c[nH]c2cccc(F)c12)C(=O)O (stereo not given) | 1120 µM | > 4500 µM | 778 µM | > 4500 µM | 20.1 µM and 154 µM | 54.7 µM and 458 µM | 32 µM and 297 µM | > 4500 µM | 77.2 µM and 726 µM | 2790 µM | 381 µM | 3040 µM |  | > 4500 µM |  | 3180 µM |  |  |  |  |
| O=C(NCc1ccccc1)C1C(=O)C(=O)N(Cc2ccccc2)C1=O (stereo not given) |  | > 100 µM |  | > 100 µM |  | > 100 µM |  |  |  | > 100 µM |  | > 100 µM |  | > 100 µM |  | > 100 µM |  | > 100 µM | > 100 µM |  |
| O=C(COc1cccc(/C=C2\Oc3ccc4ccccc4c3C2=O)c1)c1ccc([N+](=O)[O-])cc1 | 34.1 µM | > 100 µM | > 100 µM | > 100 µM | 13 µM | 34.8 µM | 12.1 µM | 29.3 µM | 18.9 µM | 53 µM | 14 µM | 32.1 µM | 1.12 µM | 13.3 µM | 21 µM | 80.8 µM |  |  |  |  |
| Cc1ccc(NC2=CC(=O)C(=O)c3ccccc32)cc1 | 2.09 µM | 4.96 µM | 4 µM | 18.9 µM | 1.38 µM | 2.67 µM | 1.53 µM | 2.91 µM | 0.779 µM | 2.11 µM | 1.8 µM | 3.77 µM | 3.55 µM | > 100 µM | 1.56 µM | 4.1 µM |  |  |  |  |
